Data: paper PMC4947017 (ACS chemical biology, 2016)
pEC50: −log10 of the molar value.

How the values were obtained:
[1] = target: T1, neurotensin receptor 1 (NTR1) (Homo sapiens, UniProt P30989); assay: […]-NT radioligand competitive displacement in NTR1-U2OS membranes; assay type: binding
[2] = target: T1, neurotensin receptor 1 (NTR1); assay: […]-NT radioligand binding to NTR1-U2OS membranes

T1 sequence (P30989 whole entry): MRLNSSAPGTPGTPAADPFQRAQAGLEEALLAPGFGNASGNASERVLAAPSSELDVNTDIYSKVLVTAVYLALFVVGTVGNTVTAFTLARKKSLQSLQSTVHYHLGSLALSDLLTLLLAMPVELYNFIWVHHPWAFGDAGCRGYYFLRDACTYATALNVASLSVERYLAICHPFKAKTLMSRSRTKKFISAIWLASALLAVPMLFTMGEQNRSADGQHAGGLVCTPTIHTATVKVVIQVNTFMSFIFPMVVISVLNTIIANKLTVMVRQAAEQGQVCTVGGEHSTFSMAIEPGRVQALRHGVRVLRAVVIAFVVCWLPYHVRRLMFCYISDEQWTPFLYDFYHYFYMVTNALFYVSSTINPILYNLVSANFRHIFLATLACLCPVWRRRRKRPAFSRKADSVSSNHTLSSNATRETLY

Row | Structure (SMILES) | IC50 [1] | pEC50 [2]
1 | COc1cccc(OC)c1-c1nc(C(=O)N[C@@H](CC(C)C)C(=O)O)cn1-c1ccnc2cc(Cl)ccc12 [ML301] | -4.0 Log(IC50) | 
2 | COc1cc2nc(C3CC3)nc(N3CCN(c4ccccc4OC)CC3)c2cc1OC [ML314] |  | 6.50
